According to ChEMBL document CHEMBL1201862, “PubChem BioAssay data set” (2004):
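Exposure lasted 48 hours, with cells grown in 96-well plates and compounds tested at five concentrations. Abbreviation: GI50, concentration required for 50% inhibition of growth.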 Active and inactive are the calls of the source. Cut-off read from the data, not from the text of the source: active = GI50 up to about 1.1 µM and inactive = higher.

Key:
Assay in all cases: growth of human tumour cells (NCI), 48 h
NCI/ADR-RES = system: NCI/ADR-RES
U-251 = system: U-251
NCI-H522 = system: NCI-H522
A498 = system: A498
SF-268 = system: SF-268
SF-295 = system: SF-295
SK-MEL-2 = system: SK-MEL-2
OVCAR-5 = system: OVCAR-5
MDA-N = system: MDA-N
MDA-MB-231 = system: MDA-MB-231
CCRF-CEM = system: CCRF-CEM
HCT-116 = system: HCT-116
K562 = system: K562
LOX IMVI = system: LOX IMVI
SK-OV-3 = system: SK-OV-3
RXF 393 = system: RXF 393
COLO 205 = system: COLO 205
786-0 = system: 786-0
HOP-62 = system: HOP-62
Hs-578T = system: Hs-578T

Measured: GI50

COC(=O)CC1(O)C=CC(=O)C=C1 [JACARANONE]
inactive: NCI/ADR-RES 3.63 µM | U-251 3.52 µM | NCI-H522 1.39 µM | A498 7.16 µM | SF-268 3.18 µM | SF-295 5.13 µM | SK-MEL-2 4.63 µM | OVCAR-5 8.99 µM | MDA-N 6.35 µM | MDA-MB-231 2.66 µM | CCRF-CEM 1.99 µM | HCT-116 9.77 µM | K562 3.76 µM | LOX IMVI 2.51 µM | SK-OV-3 14.1 µM | RXF 393 3.36 µM | COLO 205 4.68 µM | 786-0 2.88 µM | HOP-62 6.76 µM | Hs-578T 8.55 µM

Cn1c(=O)[nH]c2nccnc2c1=O
inactive: NCI/ADR-RES > 10 µM | U-251 > 10 µM | NCI-H522 > 10 µM | A498 > 10 µM | SF-268 > 10 µM | SF-295 > 10 µM | SK-MEL-2 > 10 µM | OVCAR-5 > 10 µM | MDA-N > 10 µM | MDA-MB-231 > 10 µM | CCRF-CEM > 10 µM | HCT-116 > 10 µM | K562 > 10 µM | LOX IMVI > 10 µM | SK-OV-3 > 10 µM | RXF 393 > 10 µM | COLO 205 > 10 µM | 786-0 > 10 µM | HOP-62 > 10 µM | Hs-578T > 10 µM

CCCCCCCC/C=C(\Br)C(O)C(Br)Br (centres undefined)
inactive: NCI/ADR-RES 26.2 µM | U-251 30 µM | NCI-H522 19.1 µM | A498 31 µM | SF-268 23.2 µM | SF-295 18 µM | SK-MEL-2 24.8 µM | OVCAR-5 19.3 µM | MDA-N 21.8 µM | MDA-MB-231 36.8 µM | CCRF-CEM 16.1 µM | HCT-116 27.2 µM | K562 69.7 µM | LOX IMVI 19.9 µM | SK-OV-3 26.6 µM | RXF 393 19.3 µM | COLO 205 18.9 µM | 786-0 18.5 µM | HOP-62 19.6 µM | Hs-578T 22.8 µM

CC1=NN(c2nc(N)nc(-c3ccccc3S(N)(=O)=O)n2)C(C)(C)C1
inactive: NCI/ADR-RES 9.33 µM | U-251 8.51 µM | NCI-H522 24.3 µM | A498 22.4 µM | SF-268 8.24 µM | SF-295 5.64 µM | SK-MEL-2 9.2 µM | OVCAR-5 27.2 µM | MDA-N 26.6 µM | MDA-MB-231 22.2 µM | CCRF-CEM 9.42 µM | HCT-116 10.2 µM | K562 35.2 µM | LOX IMVI 10.3 µM | SK-OV-3 9.02 µM | RXF 393 14 µM | 786-0 8.79 µM | HOP-62 13 µM | Hs-578T 74.1 µM

Cn1nnnc1SC(F)(F)c1nc2ccccc2o1
inactive: NCI/ADR-RES > 100 µM | U-251 > 100 µM | NCI-H522 > 100 µM | A498 > 100 µM | SF-268 > 100 µM | SF-295 > 100 µM | SK-MEL-2 > 100 µM | OVCAR-5 > 100 µM | MDA-N > 100 µM | MDA-MB-231 > 100 µM | CCRF-CEM 25.1 µM | HCT-116 > 100 µM | K562 > 100 µM | SK-OV-3 > 100 µM | RXF 393 > 100 µM | COLO 205 > 100 µM | 786-0 > 100 µM | HOP-62 > 100 µM | Hs-578T > 100 µM

O=S(=O)(O)n1ccnc1
inactive: NCI/ADR-RES > 100 µM | U-251 > 100 µM | NCI-H522 > 100 µM | A498 > 100 µM | SF-268 > 100 µM | SF-295 > 100 µM | SK-MEL-2 77.3 µM | OVCAR-5 > 100 µM | MDA-N > 100 µM | MDA-MB-231 > 100 µM | HCT-116 > 100 µM | K562 > 100 µM | LOX IMVI > 100 µM | SK-OV-3 > 100 µM | RXF 393 > 100 µM | COLO 205 > 100 µM | 786-0 > 100 µM | HOP-62 > 100 µM | Hs-578T > 100 µM

CC1=C2C(=O)c3ccccc3C(=O)[C@H]2C[C@@H](N2CCCCCC2=O)O1
inactive: NCI/ADR-RES 22.3 µM | U-251 23.8 µM | NCI-H522 19.9 µM | A498 > 100 µM | SF-268 20.9 µM | SF-295 18.8 µM | SK-MEL-2 23.1 µM | OVCAR-5 16.7 µM | MDA-N 16 µM | MDA-MB-231 22.5 µM | CCRF-CEM 3.44 µM | K562 19.8 µM | LOX IMVI 17.3 µM | SK-OV-3 27.5 µM | RXF 393 27 µM | COLO 205 17.3 µM | 786-0 18.4 µM | HOP-62 19 µM | Hs-578T 30.5 µM

COC(=O)N/N=C(\c1ccccc1)c1ccc(OC)cc1
inactive: NCI/ADR-RES > 100 µM | U-251 > 100 µM | NCI-H522 > 100 µM | A498 > 100 µM | SF-268 > 100 µM | SK-MEL-2 > 100 µM | OVCAR-5 > 100 µM | MDA-N > 100 µM | MDA-MB-231 > 100 µM | CCRF-CEM > 100 µM | HCT-116 > 100 µM | K562 > 100 µM | LOX IMVI 35.3 µM | SK-OV-3 > 100 µM | RXF 393 > 100 µM | COLO 205 > 100 µM | 786-0 > 100 µM | Hs-578T > 100 µM

CCOC(=O)c1[nH]cc(C)c1-c1cccn1-c1ccc(Cl)cc1[N+](=O)[O-]
inactive: NCI/ADR-RES 17.5 µM | U-251 15.1 µM | NCI-H522 14 µM | A498 35.3 µM | SF-268 21.1 µM | SF-295 28.2 µM | SK-MEL-2 15.9 µM | OVCAR-5 23.2 µM | MDA-N 22.2 µM | MDA-MB-231 8.24 µM | CCRF-CEM 25.6 µM | HCT-116 16.7 µM | K562 22.6 µM | LOX IMVI 17.5 µM | RXF 393 13.7 µM | COLO 205 17.8 µM | 786-0 18.2 µM | HOP-62 18.6 µM | Hs-578T 15.8 µM

CC(=O)O/N=C1\C=Cc2c(no[n+]2[O-])C1=O
inactive: NCI/ADR-RES 27.6 µM | NCI-H522 17 µM | A498 16.4 µM | SF-268 20.8 µM | SF-295 > 100 µM | SK-MEL-2 17.8 µM | OVCAR-5 18.3 µM | MDA-N 17.6 µM | MDA-MB-231 18.9 µM | CCRF-CEM 3.65 µM | HCT-116 14.3 µM | K562 35 µM | LOX IMVI 18 µM | RXF 393 15.2 µM | COLO 205 9.23 µM | 786-0 19.3 µM | HOP-62 38.3 µM | Hs-578T 20.8 µM

CC1(C)[N+]([O-])=[N+]([O-])C1(C)O (centres undefined)
inactive: NCI/ADR-RES > 100 µM | U-251 > 100 µM | NCI-H522 > 100 µM | A498 > 100 µM | SF-268 > 100 µM | SK-MEL-2 > 100 µM | OVCAR-5 > 100 µM | MDA-N > 100 µM | MDA-MB-231 > 100 µM | CCRF-CEM > 100 µM | HCT-116 > 100 µM | K562 > 100 µM | LOX IMVI > 100 µM | SK-OV-3 > 100 µM | RXF 393 > 100 µM | COLO 205 > 100 µM | 786-0 > 100 µM | Hs-578T > 100 µM
